Series [1] addresses T1, Cloned human D3-receptor (Homo sapiens, UniProt P35462).
T1 construct: host or cells: CCL 1,3 mouse fibroblasts
Description: D3 binding test (125iodosulpiride displacement). The following applies: negative logarithm of Ki (D3) [M]. Here is the method:
Cloned human D3-receptor-expressing CCL 1,3 mouse fibroblasts, obtainable from Res. Biochemicals Internat. One Strathmore Rd., Natick, Mass. 01760-2418 USA, were used for the binding studies.
The D3-expressing cells were multiplied in RPMI-1640 containing 10% fetal calf serum (GIBCO No. 041-32400 N); 100 U of penicillin/ml and 0.2% streptomycin (GIBO BRL, Gaithersburg, Md., USA). After 48 h, the cells were washed with PBS and incubated for 5 min with 0.05% trypsin-containing PBS. After that, the mixture was neutralized with medium and the cells were collected by centrifuging at 300 g. In order to lyse the cells, the pellet was washed briefly with lysis buffer (5 mM Tris-HCl, pH 7.4, containing 10% glycerol) and after that incubated, at 4° C. for 30 min, at a concentration of 10^7 cells/ml of lysis buffer. The cells were centrifuged at 200 g for 10 min and the pellet was stored in liquid nitrogen.
For the D3-receptor binding test, the membranes were suspended in incubation buffer (50 mM Tris-HCl, pH 7.4, containing 120 mM NaCl, 5 mM KCl, 2 mM CaCl2, 2 mM MgCl2, 10 μM quinolinol, 0.1% ascorbic acid and 0.1% BSA), at a concentration of approx. 10^6 cells/250 μl of test mixture, and incubated at 30° C. […] 0.1 nM ^125iodosulpiride in the presence and absence of the test substance. The nonspecific binding was determined using 10^−6 M spiperone.
After 60 min, the free radioligand and the bound radioligand were separated by filtering through GF/B glass fiber filters (Whatman, England) on a Skatron cell harvester (Skatron, Lier, Norway), and the filters were washed with ice-cold Tris-HCl buffer, pH-7.4. The radioactivity which had collected on the filters was quantified using a Packard 2200 CA liquid scintillation counter.
The Ki values were determined by means of nonlinear regression analysis using the LIGAND program.

In series [2] the target is T2, human dopamine D2A receptors (Homo sapiens, UniProt P14416).
T2 construct: expressed in transfected cells; host or cells: HEK-293
Description: D2 binding test (low affinity state, 125I-spiperone). The following applies: ratio Ki(D2)/Ki(D3). Here is the method:
All the media contained 100 units of penicillin […] and 100 μg/ml of streptomycin/ml. The cells were maintained at 37° C. in a moist atmosphere containing 5% CO2.
The cells were prepared for the binding studies by trypsinizing them (0.05% solution of trypsin) at room temperature for 3-5 minutes. After that, the cells were centrifuged at 250 g for 10 minutes and treated with lysis buffer (5 mM Tris-HCl, 10% glycerol, pH 7.4) at 4° C. for 30 minutes. After centrifuging at 250 g for 10 minutes, the residue was stored at −20° C. until used.
Low affinity state dopamine D2 receptor using ^125I-spiperone (81 TBq/mmol, Du Pont de Nemours, Dreieich)
The test mixtures (1 ml) consisted of 1×10^5 cells in incubation buffer (50 mM Tris, 120 mM NaCl, 5 mM KCl, 2 mM MgCl2 and 2 mM CaCl2, pH 7.4 with HCl) and […] ^125I-spiperone (total binding) or additionally 1 μM haloperidol (nonspecific binding) or test substance.
After the test mixtures had been incubated at 25° C. for 60 minutes, they were filtered through GM/B glass filters (Whatman, England) on a Skatron cell harvester (from Zinsser, Frankfurt), and the filters were washed with ice-cold 50 mM Tris-HCl buffer, pH 7.4. The radioactivity which had collected on the filters was quantified using a Packard 2200 CA liquid scintillation counter.
The results were evaluated as described in a).
The Ki values were determined by way of nonlinear regression analysis using the LIGAND program or by converting the IC50 values using the Cheng and Prusoff formula.

Where a name gives a salt, the structure may show the parent alone.

T2 sequence (P14416 whole entry): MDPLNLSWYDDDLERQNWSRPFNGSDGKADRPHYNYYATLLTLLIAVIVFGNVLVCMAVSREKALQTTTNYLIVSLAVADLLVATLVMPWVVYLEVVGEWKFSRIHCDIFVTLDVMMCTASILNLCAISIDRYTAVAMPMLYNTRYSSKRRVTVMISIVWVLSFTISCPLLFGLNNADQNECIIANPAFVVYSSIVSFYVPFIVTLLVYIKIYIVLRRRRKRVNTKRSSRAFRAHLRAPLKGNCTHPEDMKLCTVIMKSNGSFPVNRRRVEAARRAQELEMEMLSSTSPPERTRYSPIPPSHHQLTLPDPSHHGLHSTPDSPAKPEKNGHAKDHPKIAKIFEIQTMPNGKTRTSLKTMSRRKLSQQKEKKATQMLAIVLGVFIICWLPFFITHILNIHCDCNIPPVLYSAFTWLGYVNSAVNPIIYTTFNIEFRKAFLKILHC
T1 sequence (P35462 whole entry): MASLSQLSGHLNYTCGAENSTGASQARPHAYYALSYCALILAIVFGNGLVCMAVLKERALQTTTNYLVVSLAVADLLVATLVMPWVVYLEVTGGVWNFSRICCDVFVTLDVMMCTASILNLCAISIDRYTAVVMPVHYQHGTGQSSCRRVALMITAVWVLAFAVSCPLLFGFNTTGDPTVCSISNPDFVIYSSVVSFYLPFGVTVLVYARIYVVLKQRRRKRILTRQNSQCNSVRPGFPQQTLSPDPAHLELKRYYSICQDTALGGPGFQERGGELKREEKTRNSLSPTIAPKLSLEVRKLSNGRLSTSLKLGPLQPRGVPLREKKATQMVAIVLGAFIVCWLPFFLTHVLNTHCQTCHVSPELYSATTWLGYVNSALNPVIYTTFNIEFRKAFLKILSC

Take “3-[3-(N-(Indan-2-yl)propylamino)propylmercapto]-4-methyl-5-phenyl-1,2,4(4H)-triazole Fumarate [Example 1]”: the “pKi (D3)” value in series [1] was determined as 9.05. The “Selectivity (Ki(D2)/Ki(D3))” value in series [2] amounted to 71.

Turning to `Cc1ncsc1-c1nnc(SCCCNCCCC2CCc3ccc(F)cc32)n1C.Cl` (stereo not drawn), the melting point turned out to be 123 °C.

In the case of `CCCN(CCCSc1nnc(-c2scnc2C)n1C)C1CCc2ccc(OC)cc2C1` (stereo not drawn) [Example 26, 3-[3-(N-(7-Methoxy-1,2,3,4-tetrahydronaphth-2-yl)-propylamino)propylmercapto]-4-methyl-5-(4-methyl-1,3-thiazol-5-yl)-1,2,4(4H)-triazole], in series [1] (read-out: pKi (D3) (converted)), the Ki is 8.71e-09 M. Also, the “Selectivity (Ki(D2)/Ki(D3))” value in series [2] was 157.

In turn, `Cc1ccc2c(c1)CCC(NCCCSc1nnc(-c3ccccc3)n1C)C2` (stereo not drawn) [Example 4, 3-[3-(6-Methyl-1,2,3,4-tetrahydronaphth-2-ylamino)propylmercapto]-4-methyl-5-phenyl-1,2,4(4H)-triazole] returned a melting point of 69 to 73 °C.

In turn, `COc1cc2c(cc1OC)C(NCCCSc1nnc(-c3ccccc3)n1C)CC2.Cl` (stereo not drawn) yielded a melting point of 201 to 202 °C.

The compound `COc1ccc2c(c1)CC(CCCNCCCSc1nnc(-c3ccccc3)n1C)CC2` (stereo not drawn) (as salt: HCl) [Example 18, 3-[3-(N-(7-Methoxy-1,2,3,4-tetrahydronaphth-2-yl)propylamino)propylmercapto]-4-methyl-5-phenyl-1,2,4(4H)-triazole] gave a melting point of 92 to 95 °C.

`CCOC(=O)c1nnc(SCCCNC2Cc3ccccc3C2)n1C` (as salt: HCl) [Example 25, Ethyl-5-{[3-(indan-2-ylamino)propyl]mercapto}-4-methyl-1,2,4(4H)-triazole-3-carboxylate] came in with a melting point of 135 to 139 °C.

Regarding `Cl.Cn1c(SCCCNCC2CCc3cc(Br)ccc3C2)nnc1-c1ccccc1` (stereo not drawn), the melting point is 88 °C (dec.).

Take “3-[3-(6-Methyl-1,2,3,4-tetrahydronaphth-2-ylmethylamino)propylmercapto]-4-methyl-5-phenyl-1,2,4(4H)-triazole [Example 14]”: the “pKi (D3)” value in series [1] came out at 7.82. Further, the “Selectivity (Ki(D2)/Ki(D3))” value in series [2] came out at 46.

What is called melting point is the temperature, or range, at which the solid turns liquid.

The values are drawn from patent US6579892B1, “Triazole compounds with dopamine-D3-receptor affinity” (Abbott Laboratories, priority 1999, dated 2003).
